Where only a bound is given, the exact number is not on record here.

The experiment deals with THP-1 viability, CellTiter-Glo luminescence, 72 h. In words: PubChem AID 2252.
One may read the EC50 as the concentration that produces a half-maximal response. In the case of `O=C1C=CC(=O)N1CCCCCCN1C(=O)C=CC1=O`, the EC50 is 3.29 µM.
The result for `CCc1c(C)nc2cc(-c3cc(OC)cc(OC)c3)nn2c1N1CCCC1` reads 31 µM; that for `O=[N+]([O-])c1cc(/C=N/Nc2nc3ccccc3[nH]2)c(O)cc1O`, 1.7 µM; that for `Nc1ncn([C@@H]2O[C@H](CO)[C@@H](O)[C@H]2O)c(=O)n1`, 19.7 µM.
The result for `CN(C)CCCNc1cc(C(C)(C)C)nc2c(-c3ccc(Cl)cc3)cnn12` reads 7.99 µM.
On to `CC1CC(C)CN(C(=O)c2ccc(NC(=O)c3ccc(=O)[nH]c3)cc2)C1` (stereo unspecified), for which the EC50 is 33 µM.
Turning to `NC1=NC[C@@H](Cc2ccc(O)cc2)N1CCc1cc(C(F)(F)F)cc(C(F)(F)F)c1`, the EC50 is 32.3 µM.
In the case of `CCCOc1ccc(C(=O)NNC(=S)NC(C)=O)cc1`, the EC50 is 5.29 µM.
The result for `C#CCOCCOCCOCCNc1nc(N2CCN(C(=O)CCCCCCCCCCNC(=O)Cn3cc(CCCCCN)nn3)CC2)nc(N2CCN(C(=O)CCCCCCCCCCNC(=O)[C@H]([C@@H](C)CC)n3cc(CCCCN=C(N)N)nn3)CC2)n1` reads 11 µM; that for `CNCCCC1c2ccccc2C=Cc2ccccc21`, 24.5 µM; that for `CCN(CC)c1cc(C)c2cc(NC(=O)c3ccccc3F)ccc2n1`, 8.98 µM.
The result for `CCCCOc1ccc(CSC(=N)N)cc1Cl` reads 10.9 µM.
In the case of `ON=C1/C(=N\O)CC2(C/C1=N/O)OCCO2` it was 33.2 µM; in that of `CN1CCN(C(c2cccc(Cl)c2)c2ccccc2Cl)CC1` (stereo unspecified), 35 µM.
On to `Cc1cc(N/N=C/c2ccc(O)cc2)c2cccc(C)c2n1`, for which the EC50 was 7.3 µM.
For `Oc1[nH]c2ccc(Br)cc2c1N=NC(=S)N1CCOCC1`, the EC50 is 1.82 µM.
In the case of `O=C(NC(=S)NNC(=O)c1cnccn1)c1ccc(F)cc1` it was 5.51 µM; in that of `O=C(NC1CCCCC1)c1ccc([N+](=O)[O-])o1`, 9.5 µM; in that of `Cc1cccc(/C(N)=N/OC(=O)N2CCOCC2)c1`, 8.03 µM.
For `CN1CCc2c(sc(NC(=O)c3ccc([N+](=O)[O-])o3)c2C(N)=O)C1`, the EC50 is 0.7 µM.
The result for `Oc1ccccc1Nc1nc(NCc2ccco2)c2ccccc2n1` reads 12.6 µM.
For `O=C(CNC(=O)c1cccc(F)c1)N/N=C/c1ccc([N+](=O)[O-])s1`, the EC50 is 25.6 µM.
In the case of `COc1cccc(/C=N/NC(=O)c2ccoc2C)c1O` it was 4.3 µM; in that of `CCC[C@H](CN[C@@H](CNC)[C@H](C)CC)NCCc1cc(C(F)(F)F)cc(C(F)(F)F)c1`, 4.07 µM.
For the compound `COc1ccc(CNCC(O)COc2ccc(C(C)(C)c3ccccc3)cc2)cc1` (stereo unspecified), the EC50 was 14.7 µM.
In the case of `CN1/C(=C\C=C\C2=[N+](C)c3ccc4ccccc4c3C2(C)C)C(C)(C)c2ccccc21` it was 0.2 µM.
With `O=C(N/N=C/c1c[nH]c2ccccc12)c1cc2ccccc2o1`, the EC50 was 21.3 µM.
In the case of `CC[C@@H](C)[C@H](CNC)NC[C@@H](Cc1cccc2ccccc12)NCCc1cccc(C(F)(F)F)c1` it was 5.86 µM; in that of `CCN1CCN(CCNC(=O)c2ccc(/C=C3/Sc4ccccc4N(Cc4cccc(Cl)c4)C3=O)cc2)CC1`, 8.93 µM.
In the case of `O=Cc1c(Cl)nc2ccccn2c1=O` it was 21.7 µM; in that of `COc1cccc(Nc2cc(C)nc3ccccc23)c1`, 30.5 µM.
In the case of `CCc1ccc2c(c1)Sc1ccccc1CC2N1CCN(C)CC1` (stereo unspecified) it was 11.8 µM; in that of `O=C(NC(=S)NNC(=O)c1cccs1)c1ccco1`, 16.2 µM; in that of `O=C(N/N=C/c1ccc([N+](=O)[O-])o1)C1CCCC1`, less than 0.1 µM.
As for `CCCCCCCCCCCCCCCC[n+]1ccc(/C=N/O)cc1`, the EC50 is 0.3 µM.
In the case of `CN1CCN(c2ccccc2NC(=O)c2cc3c(s2)-c2ccccc2OC3)CC1` it was 9.73 µM; in that of `CCCCOc1ccc(Br)cc1CSC(=N)N`, 5.93 µM; in that of `Cc1c(CN(C)C)c2c(n1Cc1ccccc1)C(=O)c1ccc(Br)cc1-2`, 21.1 µM.
The result for `CCCC(=O)NC(c1ccco1)c1cc([N+](=O)[O-])c2cccnc2c1O` (stereo unspecified) reads 22.9 µM; that for `CN1CCN(C2Cc3cc(F)ccc3Sc3ccc(Cl)cc32)CC1` (stereo unspecified), 14.7 µM.
For the compound `CCN(CCCNC(=O)c1cn(CC)c2ccc(S(=O)(=O)N(C)C)cc2c1=O)c1cccc(C)c1`, the EC50 is 34.8 µM.
Regarding `O=C(N/N=C/c1cc(Br)cc(Br)c1O)c1ccncc1`, the EC50 was 4.01 µM.
In the case of `Cn1c(-c2ccc3c(c2)OCO3)cnc1NCc1ccc(Cl)cc1` it was 28.8 µM.
In the case of `Fc1ccc(CCNCc2ccc(Cl)c(Cl)c2)cc1` it was 35.2 µM; in that of `O=C(CCN1CCN(c2ccccc2)CC1)N/N=C/c1ccc([N+](=O)[O-])o1`, 43.9 µM; in that of `Cc1ccc(C[n+]2c(-c3ccc(C)cc3)cc(-c3ccc(C)cc3)cc2-c2ccc(C)cc2)cc1`, 0.22 µM.
On to `N=c1n(CC(=O)c2ccc(Br)s2)c2ccccc2n1Cc1ccccc1`, for which the EC50 was 4.4 µM.
The result for `c1ccc2c(c1)C(=NC1CCCCC1)NC2=NC1CCCCC1` reads 4.25 µM; that for `CN(C)CC/C=C1/c2cc(F)ccc2Sc2ccc(Cl)cc21`, 20.5 µM; that for `Cc1ccc2c(c1)c1c(n2CC(O)CNC2CCCCC2)CCCC1` (stereo unspecified), 7.7 µM.
In the case of `OCCNc1nc(Nc2ccc(Br)cc2)nc2ccccc12` it was 0.62 µM; in that of `NCC/C=C1/c2ccccc2CSc2ccccc21`, 25.9 µM; in that of `C=CCN(c1ccccc1)S(=O)(=O)c1cccc2cccnc12`, 49.4 µM.
As for `C#CCOCCOCCOCCNc1nc(N2CCN(C(=O)CCCCCCCCCCNC(=O)[C@H](CCCCN)n3cc(C)nn3)CC2)nc(N2CCN(C(=O)CCCCCCCCCCNC(=O)[C@@H]([C@H](C)CC)n3cc(CCCCCN)nn3)CC2)n1`, the EC50 is 12.7 µM.
Turning to `COc1cc([N+](=O)[O-])cc(/C=N/NC(=O)C(C)Nc2cccc(C)c2)c1O` (stereo unspecified), the EC50 was 27 µM.
The result for `CCN(CC(O)COc1ccc(OCC(O)CN(CC)C2CCCCC2)cc1)C1CCCCC1` (stereo unspecified) reads 37.4 µM; that for `O=C(Nc1c(Cl)ccc2nsnc12)c1ccc([N+](=O)[O-])o1`, 3.84 µM.
The result for `Fc1ccc([C@@H]2CCNC[C@H]2COc2ccc3c(c2)OCO3)cc1` reads 7.59 µM; that for `COc1cc(/C=N/NC(=O)c2cncc(Br)c2)cc([N+](=O)[O-])c1O`, 38.1 µM.
On to `CN1C(=O)/C(=C/c2cccc(Cl)c2)Sc2ccc(C(=O)N3CCCC3)cc21`, for which the EC50 was 21.1 µM.
The result for `O=C(NNC(=S)NC(=O)c1ccccc1)c1ccc(O)cc1` reads 14.3 µM; that for `CCn1ncc(/C=N\NC(=O)c2csc3ccccc23)c1C`, 19.1 µM.
In the case of `CC(C)[C@H](NC(=O)c1ccccc1Cl)C(=O)Nc1nc(-c2ccccn2)cs1`, the EC50 was 6.18 µM.
The result for `O=C(N/N=C/c1cc(Br)ccc1O)c1ccccc1Cl` reads 1.49 µM; that for `O=C(Nc1nc(-c2ccccn2)cs1)c1ccc(Br)s1`, 1.19 µM; that for `NC1=NC[C@H](Cc2ccc(O)cc2)N1CCCCC1CCCCC1`, 1.73 µM.
`N=c1n(CCN2CCCCC2)c2ccccc2n1CC(O)c1ccc(Cl)c(Cl)c1` (stereo unspecified): the EC50 is 4.6 µM.
In the case of `Cc1cc(OCCCCCNCCO)cc(C)c1Cl` it was 21.2 µM; in that of `COc1ccccc1C(C[N+](=O)[O-])c1c(N)n(C)c(=O)n(C)c1=O` (stereo unspecified), 8.91 µM.
In the case of `Cc1cc(C)c2c(N)c3ccccc3nc2n1` it was 12.4 µM.
The result for `CCc1nc(N)nc(N)c1-c1ccc(Cl)cc1` reads 10.5 µM.

The values above are taken from PubChem BioAssay AID2252 (Southern Research Specialized Biocontainment Screening …, 2010).
